These results are taken from ChEMBL document CHEMBL5257028, “Recent advances in the discovery of heparanase inhibitors as anti-cancer agents” (Eur J Med Chem, 2016).

One may read the IC50 as the concentration that inhibits the measured activity by half. As a reminder, the inhibition is the change of the read-out against control, counted positive when it falls. What is called half-life is how long it takes for the measured level to halve. Low readings indicate fast loss, high ones slow loss.

Data set [1] is described as follows: Anti-angiogenic activity in human endothelial cells assessed as reduction in cell growth incubated for 11 days by PECAM-1 staining based image analysis. The settings on record: 264 h.
In data set [2] the test system is HeLa. Description: Cytotoxicity against human HeLa cells assessed as growth inhibition. The data set is classed as functional, cell-based.
The target in data set [3] is T1, Heparanase (Homo sapiens) (UniProt Q9Y251).
T1 sequence (whole entry): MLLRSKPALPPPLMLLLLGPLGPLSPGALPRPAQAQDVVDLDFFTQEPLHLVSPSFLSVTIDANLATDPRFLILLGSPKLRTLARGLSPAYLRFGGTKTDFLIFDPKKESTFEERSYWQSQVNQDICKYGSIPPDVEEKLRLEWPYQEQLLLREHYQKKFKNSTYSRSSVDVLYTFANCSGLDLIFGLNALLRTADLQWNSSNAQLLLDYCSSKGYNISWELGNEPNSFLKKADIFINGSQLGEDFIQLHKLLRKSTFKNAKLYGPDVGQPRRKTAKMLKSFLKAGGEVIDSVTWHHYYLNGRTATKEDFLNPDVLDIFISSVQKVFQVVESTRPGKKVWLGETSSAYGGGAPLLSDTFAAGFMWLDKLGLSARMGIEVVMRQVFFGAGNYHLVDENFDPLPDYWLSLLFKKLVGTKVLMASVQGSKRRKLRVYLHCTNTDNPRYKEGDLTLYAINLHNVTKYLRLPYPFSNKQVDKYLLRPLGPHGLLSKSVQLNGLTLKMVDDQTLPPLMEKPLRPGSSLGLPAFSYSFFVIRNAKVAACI
Description: Inhibition of recombinant human heparanase at 5 ug/ml incubated for 4 hrs by beta-scintillation counter analysis relative to control. The settings on record: dose 5.0 µg/ml.

Data set [4] relates to B16-F10. Description: Antimigratory activity against mouse B16-F10 cells assessed as inhibition on cell migration.
Data set [5] in a line: Half life in mouse. Type of data set: ADME, organism-based. To be noted: in vivo.
Data set [6] has as its target T2, P-selectin (Mus musculus, UniProt Q01102).
T2 sequence (Q01102 whole entry): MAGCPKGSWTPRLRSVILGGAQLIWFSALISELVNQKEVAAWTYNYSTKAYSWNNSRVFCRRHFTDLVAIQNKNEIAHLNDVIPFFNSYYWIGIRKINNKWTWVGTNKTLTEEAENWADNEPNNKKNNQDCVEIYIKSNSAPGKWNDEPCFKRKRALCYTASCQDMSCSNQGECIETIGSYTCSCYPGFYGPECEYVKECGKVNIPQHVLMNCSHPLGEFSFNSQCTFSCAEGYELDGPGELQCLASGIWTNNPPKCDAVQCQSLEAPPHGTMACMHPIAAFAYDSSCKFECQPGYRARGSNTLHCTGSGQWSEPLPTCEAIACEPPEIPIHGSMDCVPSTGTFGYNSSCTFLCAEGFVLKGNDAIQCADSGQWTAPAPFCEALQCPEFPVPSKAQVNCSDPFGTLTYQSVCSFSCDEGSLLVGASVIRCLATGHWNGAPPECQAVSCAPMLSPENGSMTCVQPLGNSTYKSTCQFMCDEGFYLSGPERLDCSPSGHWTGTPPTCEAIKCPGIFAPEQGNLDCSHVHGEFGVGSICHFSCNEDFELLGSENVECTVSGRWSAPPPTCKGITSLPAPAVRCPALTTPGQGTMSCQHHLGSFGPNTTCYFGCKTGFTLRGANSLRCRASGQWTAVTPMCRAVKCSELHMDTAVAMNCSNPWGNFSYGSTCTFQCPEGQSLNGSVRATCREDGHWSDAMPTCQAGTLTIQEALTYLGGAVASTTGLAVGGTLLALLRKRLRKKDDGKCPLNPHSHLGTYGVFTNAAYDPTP
Description: Inhibition of mouse P-selectin assessed as inhibition of adhesion to human LS180 cells to immobilized P-selectin incubated for 1 hrs by ELISA. The data set is classed as cell-based. In general terms: ELISA stands for enzyme-linked immunosorbent assay.

On to `O=C(O)Cc1ccc2oc(-c3ccc(/C=C/C(=O)Nc4ccc(Cl)cc4Cl)cc3F)nc2c1`, for which the IC50 in data set [1] was found to be 2 µM.

Turning to `COc1ccc(C2CNC(c3ccccc3F)OC23CCCCC3)cc1` (configuration not stated), the IC50 in data set [2] came to 48.2 µM.

With `O=S(=O)(O)OC[C@@H]1O[C@@H](O[C@@H]2[C@@H](OS(=O)(=O)O)[C@H](OS(=O)(=O)O)C(C3O[C@H](COS(=O)(=O)O)[C@@H](O[C@H]4O[C@H](COS(=O)(=O)O)[C@@H](O[C@H]5O[C@H](COS(=O)(=O)O)[C@@H](OS(=O)(=O)O)[C@H](OS(=O)(=O)O)[C@H]5OS(=O)(=O)O)[C@H](OS(=O)(=O)O)[C@H]4OS(=O)(=O)O)[C@H](OS(=O)(=O)O)[C@H]3OS(=O)(=O)O)O[C@H]2COS(=O)(=O)O)[C@@H](OS(=O)(=O)O)[C@H](OS(=O)(=O)O)[C@H]1O[C@@H]1O[C@@H](COS(=O)(=O)O)[C@H](OS(=O)(=O)O)[C@@H](OS(=O)(=O)O)[C@@H]1OS(=O)(=O)O` (stereo in doubt; form 2), the inhibition in data set [3] was 58%.

For the compound `O=C(O)c1ccc2c(c1)C(=O)N(c1cccc(-c3nc4ccccc4o3)c1)C2=O`, in data set [1], the half-inhibitory concentration (IC50) amounted to 40 µM.

On to `CCCNc1ccc(N2C(=O)c3ccc(C(=O)O)cc3C2=O)cc1-c1nc2cc(-c3ccc(Br)cc3)ccc2o1`, for which the IC50 in data set [1] was determined as 0.25 µM.

On to `CCCCCCCCCCCCCCCc1c(O[C@H]2O[C@H](C(=O)OC)[C@@H](O)[C@H](O)[C@H]2O)ccc(O)c1C(=O)Oc1cc(C)c(C(=O)O)c(O)c1`, for which the IC50 in data set [4] worked out at 30 µM.

As for `COc1ccc(N2C(=O)c3ccc(C(=O)O)cc3C2=O)cc1-c1nc2cc(-c3ccc4c(c3)OCO4)ccc2o1`, in data set [1], the IC50 stood at 3 µM.

For the compound `O=C(O)Cc1nc(-c2ccc(-c3ccc(NC(=O)/C=C/c4ccc(Br)cc4)cc3Cl)o2)cs1`, the IC50 in data set [1] is 1 µM. Besides, in data set [5], the half-life was 30 min.

In the case of `CCCCCCCCCCCCCCCc1c(O[C@H]2O[C@H](C(=O)O)[C@@H](O)[C@H](O)[C@H]2O)ccc(O)c1C(=O)Oc1cc(C)c(C(=O)O)c(O)c1`, the IC50 in data set [4] was found to be 15 µM.

Regarding `O=S(=O)(O)OC[C@@H]1O[C@@H](O[C@@H]2[C@@H](OS(=O)(=O)O)[C@H](OS(=O)(=O)O)C(C3O[C@H](COS(=O)(=O)O)[C@@H](O[C@H]4O[C@H](COS(=O)(=O)O)[C@@H](O[C@H]5O[C@H](COS(=O)(=O)O)[C@@H](OS(=O)(=O)O)[C@H](OS(=O)(=O)O)[C@H]5OS(=O)(=O)O)[C@H](OS(=O)(=O)O)[C@H]4OS(=O)(=O)O)[C@H](OS(=O)(=O)O)[C@H]3OS(=O)(=O)O)O[C@H]2COS(=O)(=O)O)[C@@H](OS(=O)(=O)O)[C@H](OS(=O)(=O)O)[C@H]1O[C@@H]1O[C@@H](COS(=O)(=O)O)[C@H](OS(=O)(=O)O)[C@@H](OS(=O)(=O)O)[C@@H]1OS(=O)(=O)O` (stereo in doubt; form 1) [listing 1 of 2 here], the inhibition in data set [3] worked out at 85%.

With `O=S(=O)(O)OC[C@@H]1O[C@@H](O[C@@H]2[C@@H](OS(=O)(=O)O)[C@H](OS(=O)(=O)O)C(C3O[C@H](COS(=O)(=O)O)[C@@H](O[C@H]4O[C@H](COS(=O)(=O)O)[C@@H](O[C@H]5O[C@H](COS(=O)(=O)O)[C@@H](OS(=O)(=O)O)[C@H](OS(=O)(=O)O)[C@H]5OS(=O)(=O)O)[C@H](OS(=O)(=O)O)[C@H]4OS(=O)(=O)O)[C@H](OS(=O)(=O)O)[C@H]3OS(=O)(=O)O)O[C@H]2COS(=O)(=O)O)[C@@H](OS(=O)(=O)O)[C@H](OS(=O)(=O)O)[C@H]1O[C@@H]1O[C@@H](COS(=O)(=O)O)[C@H](OS(=O)(=O)O)[C@@H](OS(=O)(=O)O)[C@@H]1OS(=O)(=O)O` (stereo in doubt; form 1) [listing 2 of 2 here], the IC50 in data set [6] is 58.2 µM.
